Experimental data: patent US10709692B2, “Isoxazolidine derived inhibitors of receptor interacting protein kinase 1 (RIPK1)” (Denali Therapeutics Inc., priority 2015, dated 2020)
pIC50: −log10 of the molar value. Values joined by “and” are separate entries in the source; they are usually repeats but may differ in a detail not shown here. Equal values may be shown once.

Target: T1, receptor interacting protein kinase 1 (GST-hRIPK1 (8-327)) (Homo sapiens, UniProt Q13546)
T1 construct: GST-hRIPK1 (8-327) enzyme was generated by Proteros GmbH by Baculovirus expression system
T1 sequence (Q13546 8-327): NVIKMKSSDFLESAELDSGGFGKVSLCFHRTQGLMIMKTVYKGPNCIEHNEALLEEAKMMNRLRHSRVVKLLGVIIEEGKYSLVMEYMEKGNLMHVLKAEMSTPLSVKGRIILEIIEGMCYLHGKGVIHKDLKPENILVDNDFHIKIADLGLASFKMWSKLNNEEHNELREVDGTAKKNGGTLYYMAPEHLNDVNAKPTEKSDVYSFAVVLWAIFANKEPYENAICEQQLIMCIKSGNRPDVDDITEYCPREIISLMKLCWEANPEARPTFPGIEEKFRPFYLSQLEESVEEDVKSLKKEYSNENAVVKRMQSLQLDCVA
Assay: Fluorescent Polarization Binding (FP Binding) assay
Conditions: 10 nM GST-hRIPK1 (8-327), 5 nM fluorescent-labeled ligand, 30 min at RT
In short: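 Displacement of 5 nM fluorescent ligand from 10 nM GST-hRIPK1 (8-327), 30 min at room temperature in pH 7.5 HEPES buffer, 1% DMSO. Fluorescence polarization read (ex 531/em 595 nm); IC50 fitted from percent inhibition and averaged over at least two independent experiments.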

Structure (SMILES)	pIC50
CC(C)(C)C(=O)N1OCCC1c1ccc(F)cc1 (single isomer, unassigned) [Compound 73, 1-[3-(4-Fluorophenyl)-1,2-oxazolidin-2-yl]-2,2-dimethylpropan-1-one]	> 6.00
CC(C)(C)C(=O)N1OCC[C@H]1c1cccc(F)c1 (stereo in doubt) [Compound 23, 1-[3-(3-Fluorophenyl)-1,2-oxazolidin-2-yl]-2,2-dimethylpropan-1-one]	> 6.00
Cn1c(C#N)ccc1C(=O)N1OCC[C@H]1c1ccccc1 [Compound 1, 1-Methyl-5-[(3S)-3-phenyl-1,2-oxazolidine-2-carbonyl]-1H-pyrrole-2-carbonitrile]	> 6.00

Further lines, results first:

pIC50	Structure (SMILES)
> 6.00	Cc1ncc([C@@H]2CCON2C(=O)C(C)(C)C)cc1F (single isomer, unassigned) [Compound 97]
> 6.00	Cn1cc([C@@H]2CCON2C(=O)C(C)(C)C)cn1 (single isomer, unassigned) [Compound 106]
> 6.00	Cc1ncc([C@@H]2CCON2C(=O)C(C)(C)C(F)F)cc1C#N [Compound 220, 5-[(3S)-2-(3,3-difluoro-2,2-dimethylpropanoyl)-1,2-oxazolidin-3-yl]-2-methylpyridine-3-carbonitrile]
> 6.00 and 7.15	CC(C)(C(=O)N1OCC[C@H]1c1ccc(C(F)F)nc1)C(F)F [Compound 221, 1-[(3S)-3-[6-(difluoromethyl)pyridin-3-yl]-1,2-oxazolidin-2-yl]-3,3-difluoro-2,2-dimethylpropan-1-one]
> 6.00	CC(C)(C)C(=O)N1OCC[C@H]1c1cc(Br)cc(C#N)c1 [Compound 222, 3-bromo-5-[(3S)-2-(2,2-dimethylpropanoyl)-1,2-oxazolidin-3-yl]benzonitrile]
> 6.00	CC(C)(C)C(=O)N1OCC[C@H]1c1ccc([N+](=O)[O-])nc1 [Compound 223, 2,2-dimethyl-1-[(3S)-3-(6-nitropyridin-3-yl)-1,2-oxazolidin-2-yl]propan-1-one]
5.00 to 6.00	CC(C)S(=O)(=O)N1OCC[C@H]1c1cncc(C#N)c1 [Compound 225, 5-[(3S)-2-(propane-2-sulfonyl)-1,2-oxazolidin-3-yl]pyridine-3-carbonitrile]
> 6.00	CC(C)(C(=O)N1OCC[C@H]1c1cc(F)cc(C#N)c1)C(F)F [Compound 226, 3-[(3S)-2-(3,3-difluoro-2,2-dimethylpropanoyl)-1,2-oxazolidin-3-yl]-5-fluorobenzonitrile]
> 6.00	CC(C)(C(=O)N1OCC[C@H]1c1ccc(C(F)F)c(C#N)c1)C(F)F [Compound 227, 5-[(3S)-2-(3,3-difluoro-2,2-dimethylpropanoyl)-1,2-oxazolidin-3-yl]-2-(difluoromethyl)benzonitrile]
> 6.00	CC(C)(CC#N)C(=O)N1OCC[C@H]1c1ccc(C(F)F)c(C#N)c1 [Compound 228, 5-[(3S)-2-(3-cyano-2,2-dimethylpropanoyl)-1,2-oxazolidin-3-yl]-2-(difluoromethyl)benzonitrile]
> 6.00	N#Cc1ccc([C@@H]2CCON2C(=O)C2(C(F)F)CCC2)cc1 [Compound 229, 4-[(3S)-2-[1-(difluoromethyl)cyclo-butanecarbonyl]-1,2-oxazolidin-3-yl]benzonitrile]
> 6.00	N#Cc1ccc([C@@H]2CCON2C(=O)C23C4C5C6C4C2C6C53)cc1 (stereo partly drawn) [Compound 238, 4-[(3S)-2-(cubane-1-carbonyl)-1,2-oxazolidin-3-yl]benzonitrile]
> 6.00	CC(C)(C(=O)N1OCC[C@H]1c1cccc(C#N)c1)C(F)F [Compound 239, 3-[(3S)-2-(3,3-difluoro-2,2-dimethylpropanoyl)-1,2-oxazolidin-3-yl]benzonitrile]
8.30	N#Cc1cncc([C@@H]2CCON2C(=O)C(C2CC2)(C2CC2)C2CC2)c1 [Compound 242, 5-[(3S)-2-(tricyclopropylacetyl)-1,2-oxazolidin-3-yl]pyridine-3-carbonitrile]

Target: T1, receptor interacting protein kinase 1 (GST-hRIPK1 (8-327))
Assay: ADP-Glo luminescence assay, RIPK1 autophosphorylation
Type: biochemical
Conditions: 1.5 μg/mL GST-hRIPK1 (8-327), 50 μM ATP, 3 hours at room temperature
Procedure: (§1) Compound potency at receptor interacting protein kinase 1 and selectivity at receptor interacting protein kinase 2 and receptor interacting protein kinase 3 was determined in autophosphorylation mode, using an ADP-Glo luminescence assay, which measures the conversion of ATP to ADP.
(§2) GST-hRIPK1 (8-327) enzyme was generated by Proteros GmbH by Baculovirus expression system. GST-hRIPK2 (1-299) and GST-hRIPK3 (1-518) enzymes were purchased from SignalChem. Test compounds were diluted in DMSO and 0.1 μL of solution was dispensed to each well of a 384-well white solid microplates. The assay buffer was 50 mM HEPES pH 7.5, 50 mM NaCl, 30 mM MgCl2. The buffer was supplemented with 0.02% CHAPS, 0.01% of Pluronic F127, 0.1 mg/mL BSA and 1 mM DTT. Only for receptor interacting protein kinase 1 5 mM MnCl2, was included in the assay buffer on the day of the experiment. The enzymatic reaction consisted of 1.5 μg/mL GST-hRIPK1 (8-327) and 50 μM ATP for receptor interacting protein kinase 1, 0.4 μg/mL GST-hRIPK2 (1-299) and 150 μM ATP, 0.4 μg/mL GST-hRIPK3 (1-518) and 15 μM ATP. 5 μL of enzyme and 5 μL of ATP were added to the plate at twice the final assay concentration and incubated at room temperature for 3 hours. Following this reaction, 10 μL of ADP-Glo reagent (Promega) was added to each well and incubated for 40 minutes at room temperature. This stops the kinase reaction and depletes any remaining ATP. 20 μL of ADP-Glo detection reagent was then added to each well and incubated at room temperature for at least 15 minutes. The detection reagent converts ADP to ATP and introduces luciferase and luciferin to detect ATP. The luminescence is then measured with the Envision (PerkinElmer) plate reader. Test compound inhibition was expressed as percent inhibition of internal assay controls. For concentration response curves, normalized data is fit and pIC50 determined using XL-fit (IDBS) for Excel. The pIC50 were averaged to determine a mean value, for a minimum of two independent experiments.
as §1, with “Certain compounds were tested in the following. Compound” for “Compound”, “assay (Berger S. B. et al. (2015) Cell Death Discovery, 1: 15009),” for “assay,”
GST-hRIPK1 (8-327) enzyme was generated by Proteros GmbH by Baculovirus expression system.
as §2, with “Test” for “GST-hRIPK1 (8-327) enzyme was generated by Proteros GmbH by Baculovirus expression system. GST-hRIPK2 (1-299) and GST-hRIPK3 (1-518) enzymes were purchased from SignalChem. Test”, “microplate.” for “microplates.”, “comprised” for “consisted of”, “1” for “1, 0.4 μg/mL GST-hRIPK2 (1-299) and 150 μM ATP, 0.4 μg/mL GST-hRIPK3 (1-518)”, “IC50” for “pIC50”, “experiments. […]” for “experiments.”

Structure (SMILES)	pIC50
Cn1c(C#N)ccc1C(=O)N1OCCC1c1c(F)cccc1Cl (racemic) [Compound 3, 5-[3-(2-chloro-6-fluorophenyl)-1,2-oxazolidine-2-carbonyl]-1-methyl-1H-pyrrole-2-carbonitrile]	> 6.00
CC(C)(C)C(=O)N1OCCC1c1ccc(F)cc1 (single isomer, unassigned) [Compound 73, 1-[3-(4-Fluorophenyl)-1,2-oxazolidin-2-yl]-2,2-dimethylpropan-1-one]	> 6.00
CC(C)(C)C(=O)N1OCC[C@H]1c1cccc(F)c1 (stereo in doubt) [Compound 23, 1-[3-(3-Fluorophenyl)-1,2-oxazolidin-2-yl]-2,2-dimethylpropan-1-one]	> 6.00
Cn1c(C#N)ccc1C(=O)N1OCC[C@H]1c1ccccc1 [Compound 1, 1-Methyl-5-[(3S)-3-phenyl-1,2-oxazolidine-2-carbonyl]-1H-pyrrole-2-carbonitrile]	> 6.00
CC(C)(C)NC(=O)N1OCC[C@H]1c1ccccc1 [Compound 5, (3S)—N-tert-Butyl-3-phenyl-1,2-oxazolidine-2-carboxamide]	5.00 to 6.00
CN(C)C(=O)N1OCC[C@H]1c1ccccc1 [Compound 6, (3S)—N,N-dimethyl-3-phenyl-1,2-oxazolidine-2-carboxamide]	5.00 to 6.00
O=C(N1CCCC1)N1OCC[C@H]1c1ccccc1 [Compound 7, (3S)-3-phenyl-2-(pyrrolidine-1-carbonyl)-1,2-oxazolidine]	5.00 to 6.00
O=C(CO)N1OCC[C@H]1c1ccccc1 [Compound 9, 2-hydroxy-1-[(3S)-3-phenyl-1,2-oxazolidin-2-yl]ethan-1-one]	< 5.00
O=C(N1OCC[C@H]1c1ccccc1)C1(O)CC1 [Compound 10, 1-[(3S)-3-Phenyl-1,2-oxazolidine-2-carbonyl]cyclopropan-1-ol]	< 5.00
O=C(C1COC1)N1OCC[C@H]1c1ccccc1 [Compound 11, (3S)-2-(Oxetane-3-carbonyl)-3-phenyl-1,2-oxazolidine]	5.00 to 6.00
COCC(=O)N1OCC[C@H]1c1ccccc1 [Compound 13, 2-Methoxy-1-[(3S)-3-phenyl-1,2-oxazolidin-2-yl]ethan-1-one]	5.00 to 6.00
C[C@@H](O)C(=O)N1OCC[C@H]1c1ccccc1 [Compound 14, (2R)-2-Hydroxy-1-[(3S)-3-phenyl-1,2-oxazolidin-2-yl]propan-1-one]	< 5.00
CC(C)(C)OC(=O)N1OCC[C@H]1c1ccccc1 [Compound 22, tert-Butyl (3S)-3-phenyl-1,2-oxazolidine-2-carboxylate]	5.00 to 6.00
CC(C)(C)OC(=O)N1OCCC1c1ccccc1 (centres unmarked) [Compound 83, tert-butyl 3-phenylisoxazolidine-2-carboxylate]	5.00 to 6.00
CC(C)(C)C(=O)N1OCC[C@@H]1c1ccccc1 [Compound 84, (R)-2,2-dimethyl-1-(3-phenylisoxazolidin-2-yl)propan-1-one]	< 5.00
Cn1c(C#N)ccc1C(=O)N1OCC[C@@H]1c1ccccc1 [Compound 85, (R)-1-methyl-5-(3-phenylisoxazolidine-2-carbonyl)-1H-pyrrole-2-carbonitrile]	< 5.00

Now from value to molecule:

pIC50	Structure (SMILES)
> 6.00	Cc1ncc([C@@H]2CCON2C(=O)C(C)(C)C)cc1F (single isomer, unassigned) [Compound 97]
> 6.00	Cn1cc([C@@H]2CCON2C(=O)C(C)(C)C)cn1 (single isomer, unassigned) [Compound 106]
